Measurements published in patent US20240140931A1, “TRICYCLIC COMPOUNDS AND USES THEREOF” (HUTCHMED LIMITED, priority 2021, published 2024).

Tests used:
[1] = test system: pERK1/2 (Thr202/Tyr204) in Miapaca2 cells; experiment: Assay of intracellular pERK1/2 (Thr202/Tyr204) phosphorylation; type: cell-based; settings: Homo sapiens, MIA PaCa-2, 2 h, pERK1/2 (Thr202/Tyr204) HTRF
Method in brief: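 HTRF read-out (665/615 nm) of phospho-ERK1/2 Thr202/Tyr204 in lysates from Miapaca2 cells exposed for 2 h to 3-fold compound dilutions at 0.5% final DMSO. Controls: lysis buffer without cells and DMSO-treated cells; IC50 from four-parameter logistic fit.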

[2] = biological target: Human full-length SHP2 recombinant protein (Homo sapiens (Human), UniProt Q06124); experiment: Assay of full-length SHP2 phosphatase activity; type: biochemical; settings: DiFMUP substrate, with activating peptide
Sequence of Human full-length SHP2 recombinant protein (Q06124 whole entry): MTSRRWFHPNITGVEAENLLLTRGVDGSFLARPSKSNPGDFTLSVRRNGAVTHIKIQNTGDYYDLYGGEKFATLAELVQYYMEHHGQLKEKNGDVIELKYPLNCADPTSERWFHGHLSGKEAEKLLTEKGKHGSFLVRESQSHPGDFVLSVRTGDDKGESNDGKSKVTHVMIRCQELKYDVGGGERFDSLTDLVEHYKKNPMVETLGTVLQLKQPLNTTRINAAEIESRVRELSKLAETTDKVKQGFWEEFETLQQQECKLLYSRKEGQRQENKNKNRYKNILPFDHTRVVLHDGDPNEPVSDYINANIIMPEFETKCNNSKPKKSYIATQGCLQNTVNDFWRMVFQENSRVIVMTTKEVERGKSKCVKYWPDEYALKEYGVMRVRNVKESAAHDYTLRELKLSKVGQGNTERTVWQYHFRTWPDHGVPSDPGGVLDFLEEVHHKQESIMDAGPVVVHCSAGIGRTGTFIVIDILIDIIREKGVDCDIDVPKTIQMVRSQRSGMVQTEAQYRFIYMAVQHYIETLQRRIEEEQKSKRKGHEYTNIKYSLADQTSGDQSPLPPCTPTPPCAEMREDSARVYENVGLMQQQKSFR
Method in brief: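 Readout: DiFMUP hydrolysis fluorescence (355/460 nm) after 60 min at 25 °C, following 30 min RT preincubation of compound with peptide-activated full-length human SHP2. Controls were 1% DMSO with or without enzyme; IC50 by four-parameter logistic fit.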

Miapaca2 3D spheroids = experiment: Assay of cell proliferation on Miapaca2 3D spheroids; type: cell-based; settings: Homo sapiens, MIA PaCa-2, 120 h, CellTiter-Glo 3D, 5 days treatment
Procedure: Example 4 Assay of Cell Proliferation on Miapaca2 3D Spheroids
1. Reagents and Materials • CellTiter-Glo® 3D Cell Viability Assay Kit: Promega, Cat #G9683; • CellCarrier Spheroid ULA 96-well plate: Corning, Cat #4515; • Instrument: Envision, Perkinelmer; • Cell line: Miapaca2, ATCC, Cat #CRL-1420.
2. Preparation of Reaction Solutions • The test compound was dissolved in DMSO and diluted with DMSO to 3000.0 μM, and the compound was further 3-fold diluted with DMSO to: 1000.0, 333.3, 111.1, 37.0, 12.3, 4.1, and 1.4 μM. Then 2 μL of the compound at different dilution concentrations was added to 198 μL of a 1640 medium to prepare a 10× test compound, wherein DMSO was at the concentration of 1% (DMSO was at the final concentration of 0.1%).
3. Experimental Methods • Day0: Digest cells and count cell numbers. Miapaca2 cells were inoculated into a spheroid ULA 96-well plate at a density of 300 cells/well at 100 μL/well and cultured in a cell incubator at 5% CO2 and 37° C. • Day2: The cell spheroids formed at day2. Add 10 μL of 10× test compounds to the 96-well plate. To the cell positive control well was added 10 μL of 1% DMSO 1640 medium. Incubate the cell spheroids in a cell incubator at 5% CO2 and 37° C. for additional 5 days. • Cell viability assay: Add 50 μL of CellTiter-Glo reagent to each well, place the plate in a microplate shaker, and lysis under shaking at 900 rpm at room temperature for 5 minutes. Then incubate the plate at room temperature in the dark for 30 minutes. • The luminescene of each well was detected on Envision2104.
Cell Survial %=(Lum(d7 treatment)−Lum(d2 cell))/(Lum(d7 cell)−Lum(d2 cell))×100
Wherein: • Lum(d7 treatment) refers to the luminescene of the test compound treated cells on day7; • Lum(d2 cell) refers to the luminescene of the 0.1% DMSO treated Miapaca2 cells on day2; • Lum(d7 cell) refers to the luminescene of the 0.1% DMSO treated Miapaca2 cells on day7. • IC50 values were calculated following formula 205: y=A+((B−A)/(1+((C/X)^D))), by using the XL-Fit 5.0 software.

| SMILES | IC50 [1] | IC50 [2] | IC50 (Miapaca2 3D spheroids) |
| --- | --- | --- | --- |
| CNC(=O)C#Cc1ccc2c(c1)[C@@H](N)C1(CCN(c3cnc(Sc4ccnc(N)c4Cl)c(N)n3)CC1)C2 [Compound 229, (S)-3-(1-amino-1′-(6-amino-5-((2-amino-3-chloropyridin-4-yl)thio)pyrazin-2-yl)-1,3-dihydrospiro[indene-2,4′-piperidin]-6-yl)-N-methylpropiolamide] | 2 nM | 1 nM | 0.5 nM |
| Nc1nc(N2CCC3(CC2)Cc2ccc(C#CC(=O)NC4CC4)cc2[C@H]3N)c(Cl)nc1Sc1ccnc(N)c1Cl [Compound 230] | 31 nM | 10 nM | 7.4 nM |
| CNC(=O)C#Cc1ccc2c(c1)[C@@H](N)C1(CCN(c3cnc(Sc4cccnc4Cl)cn3)CC1)C2 [Compound 231] | 7 nM | < 0.5 nM | 0.8 nM |
| CNC(=O)C#Cc1ccc2c(c1)[C@@H](N)C1(CCN(c3ncc(Sc4ccnc(N)c4Cl)nc3C)CC1)C2 [Compound 232] | 8 nM | 2 nM | 0.9 nM |
| CNC(=O)C#Cc1ccc2c(c1)[C@@H](N)C1(CCN(c3ncc(Sc4ccnc(N)n4)nc3C)CC1)C2 [Compound 233] | 14 nM | 1.1 nM | 3.2 nM |
| CCNC(=O)C#Cc1ccc2c(c1)[C@@H](N)C1(CCN(c3cnc(Sc4cccnc4C(F)(F)F)c(N)n3)CC1)C2 [Compound 235] | 9 nM | 1.7 nM | 0.9 nM |
| CNC(=O)C#Cc1ccc2c(c1)[C@@H](N)C1(CCN(c3cnc(Sc4cccnc4C(F)(F)F)c(N)n3)CC1)C2 [Compound 236] | 3 nM | 1.3 nM | 1 nM |
| CCCNC(=O)C#Cc1ccc2c(c1)[C@@H](N)C1(CCN(c3nc(N)c(Sc4ccnc(N)c4Cl)nc3C)CC1)C2 [Compound 237] | 4 nM | 3.9 nM | 2.4 nM |
| CCNC(=O)C#Cc1ccc2c(c1)[C@@H](N)C1(CCN(c3cnc(Sc4cccnc4Cl)c(N)n3)CC1)C2 [Compound 238] | 4 nM | 1.3 nM | 1 nM |
| CNC(=O)C#Cc1ccc2c(c1)[C@@H](N)C1(CCN(c3nc(N)c(Sc4ccnc(N)c4Cl)nc3F)CC1)C2 [Compound 239, (S)-3-(1-amino-1′-(6-amino-5-((2-amino-3-chloropyridin-4-yl)thio)-3-fluoropyrazin-2-yl)-1,3-dihydrospiro[indene-2,4′-piperidin]-6-yl)-N-methylpropiolamide] | 15 nM | 3 nM | 2.1 nM |
| CNC(=O)C#Cc1ccc2c(c1)[C@@H](N)C1(CCN(c3nc(N)c(Sc4ccnc(N)c4Cl)nc3Br)CC1)C2 [Compound 240, (S)-3-(1-amino-1′-(6-amino-5-((2-amino-3-chloropyridin-4-yl)thio)-3-bromopyrazin-2-yl)-1,3-dihydrospiro[indene-2,4′-piperidin]-6-yl)-N-methylpropiolamide] | 18 nM | 1.5 nM | 5 nM |
| C#Cc1ccc2c(c1)[C@@H](N)C1(CCN(c3nc(N)c(Sc4ccnc(N)c4Cl)nc3C)CC1)C2 [Compound 241] | 10 nM | 1.2 nM | 3.8 nM |
| CNC(=O)C#Cc1ccc2c(c1)[C@@H](N)C1(CCN(c3cnc(Sc4cccnc4C(F)(F)F)cn3)CC1)C2 [Compound 242] | 13 nM | 0.7 nM | 2 nM |
| CCNC(=O)C#Cc1ccc2c(c1)[C@@H](N)C1(CCN(c3cnc(N4CCCc5ncccc54)cn3)CC1)C2 [Compound 243, (S)-3-(1-amino-1′-(5-(3,4-dihydro-1,5-naphthyridin-1(2H)-yl)pyrazin-2-yl)-1,3-dihydrospiro[indene-2,4′-piperidin]-6-yl)-N-ethylpropiolamide] | 19 nM | 0.7 nM | 15 nM |
| CCNC(=O)C#Cc1ccc2c(c1)[C@@H](N)C1(CCN(c3cnc(N4CCCc5ncccc54)nn3)CC1)C2 [Compound 244] | 139 nM | 11 nM | 41 nM |
| C#Cc1ccc2c(c1)[C@@H](N)C1(CCN(c3cc(=O)n(-c4cccc(Cl)c4Cl)c(N)n3)CC1)C2 [Compound 245] | 12 nM | < 0.5 nM | 17 nM |
| CCNC(=O)C#Cc1ccc2c(c1)[C@@H](N)C1(CCN(c3cnc(Sc4cc(N)ncc4Cl)c(N)n3)CC1)C2 [Compound 247] | 3 nM | 1 nM | 1 nM |

| SMILES | IC50 [1] | IC50 [2] | IC50 (Miapaca2 3D spheroids) |
| --- | --- | --- | --- |
| CNC(=O)C#Cc1ccc2c(c1)[C@@H](N)C1(CCN(c3cnc(Sc4cccnc4Cl)c(N)n3)CC1)C2 [Compound 248] | 2 nM | < 0.5 nM | 0.4 nM |
| CCNC(=O)C#Cc1ccc2c(c1)[C@@H](N)C1(CCN(c3ncc(Sc4ccnc(N)c4Cl)nn3)CC1)C2 [Compound 249] | 31 nM | 1 nM | 19 nM |
| CNC(=O)C#Cc1ccc2c(c1)[C@@H](N)C1(CCN(c3ncc(Sc4ccnc(N)c4Cl)nn3)CC1)C2 [Compound 250] | 72 nM | 1 nM | 14 nM |
| CNC(=O)C#Cc1ccc2c(c1)[C@@H](N)C1(CCN(c3cnc(N4CCCc5ncccc54)cn3)CC1)C2 [Compound 251] | 24 nM | 1 nM | 29 nM |
| C#Cc1ccc2c(c1)[C@@H](N)C1(CCN(c3cnc(Sc4ccnc(N)c4Cl)cn3)CC1)C2 [Compound 252] | 3 nM | 1 nM | 1 nM |
| CNC(=O)C#Cc1ccc2c(c1)[C@@H](N)C1(CCN(c3cnc(Sc4cc(N)nc(Cl)c4Cl)c(N)n3)CC1)C2 [Compound 253] | 10 nM | 1 nM | 2 nM |
| CNC(=O)C#Cc1ccc2c(c1)[C@@H](N)C1(CCN(c3cnc(Sc4cc(N)nc(Cl)c4Cl)cn3)CC1)C2 [Compound 254] | 11 nM | 3 nM | 10 nM |
| CCNC(=O)C#Cc1ccc2c(c1)[C@@H](N)C1(CCN(c3cnc(Sc4cc(N)nc(Cl)c4Cl)c(N)n3)CC1)C2 [Compound 255] | 8 nM | 3 nM | 3 nM |
| CCNC(=O)C#Cc1ccc2c(c1)[C@@H](N)C1(CCN(c3cnc(Sc4cc(N)nc(Cl)c4Cl)cn3)CC1)C2 [Compound 256] | 12 nM | 4 nM | 6 nM |
| CCNC(=O)C#Cc1ccc2c(c1)[C@@H](N)C1(CCN(c3cnc(Sc4ccnc(N)c4F)cn3)CC1)C2 [Compound 257] | 1 nM | < 0.5 nM | 0.3 nM |
| CCNC(=O)C#Cc1ccc2c(c1)[C@@H](N)C1(CCN(c3ncc(Sc4ccnc(N)c4Cl)nc3C)CC1)O2 [Compound 259] | 23 nM | 4 nM | 5 nM |
| CCNC(=O)C#Cc1ccc2c(c1)[C@@H](N)C1(CCN(c3cnc(Sc4ccnc(N)n4)cn3)CC1)C2 [Compound 260] | 5 nM | 1 nM | 2 nM |
| CCNC(=O)C#Cc1ccc2c(c1)[C@@H](N)C1(CCN(c3ncc(Sc4ccnc(N)n4)nc3C)CC1)C2 [Compound 261] | 7 nM | 0.9 nM | 2 nM |
| CNC(=O)C#Cc1ccc2c(c1)[C@@H](N)C1(CCN(c3cnc(Sc4ccnc(N)n4)cn3)CC1)C2 [Compound 262] | 7 nM | 0.3 nM | 1 nM |
| CNC(=O)C#Cc1ccc2c(c1)[C@@H](N)C1(CCN(c3cnc(Sc4ccnc(N)c4F)c(N)n3)CC1)C2 [Compound 264] | 2 nM | 0.6 nM | 0.4 nM |
| CNC(=O)C#Cc1ccc2c(c1)[C@@H](N)C1(CCN(c3cnc(Sc4ccnc(N)c4F)cn3)CC1)C2 [Compound 265] | 0.9 nM | 0.4 nM | 0.4 nM |
| CNC(=O)C#Cc1ccc2c(c1)[C@@H](N)C1(CCN(c3ncc(Sc4ccnc(N)c4Cl)nc3C)CC1)O2 [Compound 266] | 26 nM | 5 nM | 10 nM |
